{"source": "paper PMC7614683", "about": "“A small molecule PI3Kα activator for cardioprotection and neuroregeneration” (Nature, 2023)", "key": {"PI3Kα N345K mutant": {"target": "T1, PI3Kα N345K mutant (Homo sapiens, UniProt P42336, N345K)", "T1 construct": "Full-length human p110α was expressed either in a complex with full-length human p85α (for HTS, biochemistry and HDX-MS); 6xHis tag followed by TEV protease site (N); host or cells: Sf9, baculovirus", "T1 sequence (P42336 whole entry N345K)": "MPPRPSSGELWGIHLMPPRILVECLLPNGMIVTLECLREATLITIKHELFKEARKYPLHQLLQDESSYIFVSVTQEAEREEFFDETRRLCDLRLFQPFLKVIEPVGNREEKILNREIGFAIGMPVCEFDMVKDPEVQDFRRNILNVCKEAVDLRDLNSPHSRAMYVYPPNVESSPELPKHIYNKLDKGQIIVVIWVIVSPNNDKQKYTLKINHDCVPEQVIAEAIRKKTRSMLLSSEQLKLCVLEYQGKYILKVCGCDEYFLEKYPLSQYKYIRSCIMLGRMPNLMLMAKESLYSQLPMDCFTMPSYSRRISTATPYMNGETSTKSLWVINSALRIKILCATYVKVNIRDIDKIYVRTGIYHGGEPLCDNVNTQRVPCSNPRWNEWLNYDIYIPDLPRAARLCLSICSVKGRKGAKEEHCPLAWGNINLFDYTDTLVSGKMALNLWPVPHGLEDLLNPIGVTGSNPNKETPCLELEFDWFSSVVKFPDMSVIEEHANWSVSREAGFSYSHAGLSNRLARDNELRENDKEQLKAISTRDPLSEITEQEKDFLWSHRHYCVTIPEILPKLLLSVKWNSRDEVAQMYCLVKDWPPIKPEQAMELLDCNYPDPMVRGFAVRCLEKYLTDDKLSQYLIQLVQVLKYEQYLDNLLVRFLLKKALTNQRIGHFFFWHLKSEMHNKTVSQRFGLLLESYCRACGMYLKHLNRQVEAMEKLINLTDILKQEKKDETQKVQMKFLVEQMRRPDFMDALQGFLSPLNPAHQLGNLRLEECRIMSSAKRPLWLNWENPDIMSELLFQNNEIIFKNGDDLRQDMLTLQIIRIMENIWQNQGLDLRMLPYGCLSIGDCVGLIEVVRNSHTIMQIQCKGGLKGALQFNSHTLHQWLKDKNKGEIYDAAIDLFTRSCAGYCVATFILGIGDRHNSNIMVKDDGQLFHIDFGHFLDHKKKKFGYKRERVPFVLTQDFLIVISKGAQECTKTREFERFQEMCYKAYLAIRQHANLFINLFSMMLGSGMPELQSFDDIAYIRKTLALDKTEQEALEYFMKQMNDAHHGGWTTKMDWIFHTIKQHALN", "T1 sequence (P27986 whole entry partner)": "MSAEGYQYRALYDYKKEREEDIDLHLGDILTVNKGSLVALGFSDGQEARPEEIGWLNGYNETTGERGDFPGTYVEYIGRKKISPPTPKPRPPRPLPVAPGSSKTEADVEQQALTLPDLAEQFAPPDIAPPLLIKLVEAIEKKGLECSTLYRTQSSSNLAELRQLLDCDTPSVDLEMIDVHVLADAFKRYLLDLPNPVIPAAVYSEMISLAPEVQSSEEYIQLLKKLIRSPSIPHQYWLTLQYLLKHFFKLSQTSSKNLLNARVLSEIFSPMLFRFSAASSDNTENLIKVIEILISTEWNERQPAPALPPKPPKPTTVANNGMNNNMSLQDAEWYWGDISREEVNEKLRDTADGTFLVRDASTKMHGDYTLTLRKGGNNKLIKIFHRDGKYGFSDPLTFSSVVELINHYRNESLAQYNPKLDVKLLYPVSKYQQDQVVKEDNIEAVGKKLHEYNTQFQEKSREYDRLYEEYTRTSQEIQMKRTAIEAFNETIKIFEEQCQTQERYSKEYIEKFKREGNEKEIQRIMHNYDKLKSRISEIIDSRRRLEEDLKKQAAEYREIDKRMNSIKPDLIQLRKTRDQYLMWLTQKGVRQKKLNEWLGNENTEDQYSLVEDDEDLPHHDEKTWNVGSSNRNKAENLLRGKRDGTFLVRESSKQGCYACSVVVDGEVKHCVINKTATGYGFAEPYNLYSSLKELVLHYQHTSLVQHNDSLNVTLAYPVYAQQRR", "assay": "ADP-Glo catalytic activity, oncogenic mutant N345K", "format": "biochemical", "experimental": "(§1) Expression and purification of wild-type p110α (Cambridge MRC Laboratory for Molecular Biology (LMB-MRC) plasmid number OP831) in a complex with full-length p85α (LMB-MRC plasmid OP809) was performed as described. The oncogenic mutants G106V (LMB-MRC plasmid JB35), N345K (LMB-MRC plasmid OP661) and E545K (LMB-MRC plasmid OP663) were also purified using this protocol. Briefly, 10 litres of Spodoptera frugiperda (Sf9) cell culture at a density of 1.0 x 10^6 cells/ml were co-infected with a p85α-encoding virus [LMB-MRC plasmid OP809]. and a virus encoding p110α with an N-terminal 6xHis tag followed by a tobacco etch virus (TEV) protease site [LMB-MRC plasmid OP831]. After a 48 h infection at 27°C, cells were harvested and washed with PBS. […]\n(§2) For characterisation of the effects of 1938 on in vitro PI3K enzymology, all reactions were performed at room temperature with 384 white-polystyrene plates (Corning #3574). […] Data was expressed as velocity (nmol of ADP generated/nmol of enzyme/sec). […] Luminescence was read using a PHERAstar® plate reader with software version 5.41, and analyses were performed using GraphPad Prism 8/9."}, "PI3Kα E545K mutant": {"target": "T2, PI3Kα E545K mutant (Homo sapiens, UniProt P42336, E545K)", "T2 construct": "Full-length human p110α was expressed either in a complex with full-length human p85α (for HTS, biochemistry and HDX-MS); 6xHis tag followed by TEV protease site (N); host or cells: Sf9, baculovirus", "T2 sequence (P42336 whole entry E545K)": "as the sequence (P42336 whole entry N345K) above, with K345N, E545K counted along it", "T2 sequence (P27986 whole entry partner)": "as the sequence (P27986 whole entry partner) above", "assay": "ADP-Glo catalytic activity, oncogenic mutant E545K", "format": "biochemical", "experimental": "as §1, §2"}, "[1]": {"system": "PI3Kα-KO MEFs transiently transfected with PIK3CA constructs", "assay": "pAKT S473 in PI3Kα-KO MEFs transfected with p110α-WT or p110α-mutants", "format": "cell-based, mouse", "settings": "1938 5 μM", "source_text": "Flag-PIK3R1 (a kind gift of Neil Vasan), PIK3CA-WT and mutant PIK3CA (D603K, L1006R, F1016S and L1006R/F1016S) were cloned into pcDNA3.4TOPO. pcDNA3-eGFP was used as a control for transfection efficiency and is available on Addgene repository upon request (Plasmid #13031). The mutations in PIK3CA were introduced by site-directed mutagenesis according to published commercial protocols using NEBuilder HiFi DNA Assembly Master Mix (NEB E2621). For each mutation, a pair of primers were designed to incorporate a mutation within the gene, with the resulting PCR products containing a 20 bp overlap and the desired mutations. The DpnI-treated and purified PCR products were combined with the linearized vector and treated with the NEBuilder HiFi DNA Assembly Master Mix. Following transformation, single colonies were grown and purified with QIAprep spin Miniprep kit (Qiagen 27106). All plasmids were sequenced for verification.\neGFP, Flag-PIK3R1, PIK3CA-WT and mutant PIK3CA (D603K, L1006R, F1016S, L1006R/F1016S) plasmids were used for transient transfection. Pik3ca-KO MEFs cells were seeded at 70-80% confluency in 6-well plate at 100,000 cells per well. […]"}}}
{"smiles": "CCN1CCN(c2ccc(Nc3cc(Nc4cccc5c4N(C(C)=O)CC5)ccn3)cc2)CC1", "note": "[Compound 1938]", "values": [{"measurement": "activation of N345K mutant", "setting": "PI3Kα N345K mutant", "value": "levels comparable with stimulation with pY"}, {"measurement": "activation of E545K mutant", "setting": "PI3Kα E545K mutant", "value": "could be further activated by 1938"}, {"measurement": "pAKT^S473 stimulation after expression of WT PI3Kα", "setting": "[1]", "value": "restored 1938-mediated pAKT^S473 stimulation"}, {"measurement": "pAKT^S473 induction after expression of 1938-resistant p110α-mutants", "setting": "[1]; D603K, L1006R, F1016S, L1006R/F1016S", "value": "none of the p110α-mutants resistant to 1938-activation in in vitro kinase assays showed a response"}]}
